Measurements taken from ChEMBL document CHEMBL3352377, “Discovery of selective and orally bioavailable protein kinase Cθ (PKCθ) inhibitors from a fragment hit” (J Med Chem, 2015).

What was measured:
[1] = target: T1, Protein kinase C theta type (Homo sapiens, UniProt Q04759); experiment: Inhibition of human recombinant PKCtheta by TR-FRET assay
Focal adhesion kinase 1 = Focal adhesion kinase 1 (Homo sapiens, UniProt Q05397); experiment: Inhibition of FAK (unknown origin) by TR-FRET assay
[2] = target: T1, Protein kinase C theta type
Description: Inhibition of human recombinant PKCtheta expressed in Sf21 cells using Bio-cdc peptide substrate and ATP after 60 mins by time-resolved fluorescence in-vitro kinase assay

[3] = target: Protein kinase C alpha type (Homo sapiens, UniProt P17252)
[4] = Permeability from apical to basolateral side in MDCK2-MDR1 cells at pH 7.4; assay type: ADME, cell-based, Canis lupus familiaris, MDCK-II; settings: dog, MDCK-MDR1, pH 7.4; read-out: permeability
[5] = Unbound intrinsic clearance in human microsomes; assay type: ADME, Microsome
[6] = Unbound intrinsic clearance in rat microsomes; assay type: ADME, Microsome
cells = settings: Homo sapiens, T-Blast, 24 h
Description: Inhibition of anti-CD3/anti-CD28 antibody-induced IL2 production in human T-Blast cells after 24 hrs

[7] = target: Protein kinase C beta type (Homo sapiens, UniProt P05771); experiment: Inhibition of human recombinant PKCbeta expressed in Sf21 cells using Bio-cdc peptide substrate and ATP after 60 mins by time-resolved fluorescence in-vitro kinase assay
Sequence of Protein kinase C beta type (P05771 whole entry): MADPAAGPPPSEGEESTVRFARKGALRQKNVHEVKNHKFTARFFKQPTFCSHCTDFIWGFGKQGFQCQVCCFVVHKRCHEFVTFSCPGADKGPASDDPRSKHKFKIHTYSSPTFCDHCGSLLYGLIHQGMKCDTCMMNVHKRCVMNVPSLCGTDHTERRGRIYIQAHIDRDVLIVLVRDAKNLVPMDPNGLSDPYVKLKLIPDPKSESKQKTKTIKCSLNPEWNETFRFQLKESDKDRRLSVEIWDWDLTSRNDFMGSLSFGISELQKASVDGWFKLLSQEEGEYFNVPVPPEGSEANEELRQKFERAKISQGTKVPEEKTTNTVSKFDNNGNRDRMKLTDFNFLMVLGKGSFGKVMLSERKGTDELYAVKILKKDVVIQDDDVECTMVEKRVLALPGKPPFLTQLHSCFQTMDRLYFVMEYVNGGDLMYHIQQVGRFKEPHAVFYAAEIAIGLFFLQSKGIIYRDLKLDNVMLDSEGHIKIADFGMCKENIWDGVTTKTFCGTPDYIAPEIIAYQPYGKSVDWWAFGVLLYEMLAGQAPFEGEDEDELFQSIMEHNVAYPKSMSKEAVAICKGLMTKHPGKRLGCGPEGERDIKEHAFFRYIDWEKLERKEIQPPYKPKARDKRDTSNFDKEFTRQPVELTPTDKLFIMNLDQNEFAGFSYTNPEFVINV

[8] = target: Protein kinase C delta type (Homo sapiens, UniProt Q05655); experiment: Inhibition of human recombinant PKCdelta expressed in Sf21 cells using Bio-cdc peptide substrate and ATP after 60 mins by time-resolved fluorescence in-vitro kinase assay
Sequence of Protein kinase C delta type (Q05655 whole entry): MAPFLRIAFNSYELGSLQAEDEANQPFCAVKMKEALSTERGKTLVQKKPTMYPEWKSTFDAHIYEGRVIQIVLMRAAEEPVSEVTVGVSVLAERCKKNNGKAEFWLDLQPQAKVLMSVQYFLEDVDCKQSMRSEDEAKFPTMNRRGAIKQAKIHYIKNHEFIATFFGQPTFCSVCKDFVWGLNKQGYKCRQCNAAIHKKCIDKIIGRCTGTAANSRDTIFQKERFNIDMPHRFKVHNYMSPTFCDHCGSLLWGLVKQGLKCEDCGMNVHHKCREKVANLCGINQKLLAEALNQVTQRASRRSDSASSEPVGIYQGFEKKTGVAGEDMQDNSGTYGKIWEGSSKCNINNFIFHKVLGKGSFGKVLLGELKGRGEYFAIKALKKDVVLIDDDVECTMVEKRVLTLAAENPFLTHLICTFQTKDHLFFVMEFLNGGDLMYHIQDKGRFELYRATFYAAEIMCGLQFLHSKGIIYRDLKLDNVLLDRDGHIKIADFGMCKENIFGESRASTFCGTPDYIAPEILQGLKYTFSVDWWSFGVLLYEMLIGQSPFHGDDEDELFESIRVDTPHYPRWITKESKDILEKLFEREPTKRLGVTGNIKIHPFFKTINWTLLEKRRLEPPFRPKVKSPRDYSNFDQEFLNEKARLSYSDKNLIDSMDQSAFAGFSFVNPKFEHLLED

[9] = target: Protein kinase C gamma type (Homo sapiens, UniProt P05129); experiment: Inhibition of human recombinant PKCgamma expressed in Sf21 cells using Bio-cdc peptide substrate and ATP after 60 mins by time-resolved fluorescence in-vitro kinase assay
[10] = Plasma clearance in rat at 1 mg/kg, iv or 3 mg/kg, po; assay type: ADME, organism-based
[11] = Half life in rat at 1 mg/kg, iv or 3 mg/kg, po; assay type: ADME, organism-based; settings: in vivo
[12] = Cmax in rat at 1 mg/kg, iv or 3 mg/kg, po; assay type: ADME, organism-based; settings: in vivo
[13] = AUC in rat at 1 mg/kg, iv or 3 mg/kg, po; assay type: ADME, organism-based; settings: plasma
[14] = Oral bioavailability in rat at 3 mg/kg; assay type: ADME, organism-based; settings: in vivo
[15] = Unbound intrinsic clearance in mouse microsomes; assay type: ADME, Microsome
[16] = target: T2, Protein kinase C epsilon type (Homo sapiens, UniProt Q02156); experiment: Inhibition of human recombinant PKCepsilon expressed in Sf21 cells using Bio-cdc peptide substrate and ATP after 60 mins by time-resolved fluorescence in-vitro kinase assay
T2 sequence (Q02156 whole entry): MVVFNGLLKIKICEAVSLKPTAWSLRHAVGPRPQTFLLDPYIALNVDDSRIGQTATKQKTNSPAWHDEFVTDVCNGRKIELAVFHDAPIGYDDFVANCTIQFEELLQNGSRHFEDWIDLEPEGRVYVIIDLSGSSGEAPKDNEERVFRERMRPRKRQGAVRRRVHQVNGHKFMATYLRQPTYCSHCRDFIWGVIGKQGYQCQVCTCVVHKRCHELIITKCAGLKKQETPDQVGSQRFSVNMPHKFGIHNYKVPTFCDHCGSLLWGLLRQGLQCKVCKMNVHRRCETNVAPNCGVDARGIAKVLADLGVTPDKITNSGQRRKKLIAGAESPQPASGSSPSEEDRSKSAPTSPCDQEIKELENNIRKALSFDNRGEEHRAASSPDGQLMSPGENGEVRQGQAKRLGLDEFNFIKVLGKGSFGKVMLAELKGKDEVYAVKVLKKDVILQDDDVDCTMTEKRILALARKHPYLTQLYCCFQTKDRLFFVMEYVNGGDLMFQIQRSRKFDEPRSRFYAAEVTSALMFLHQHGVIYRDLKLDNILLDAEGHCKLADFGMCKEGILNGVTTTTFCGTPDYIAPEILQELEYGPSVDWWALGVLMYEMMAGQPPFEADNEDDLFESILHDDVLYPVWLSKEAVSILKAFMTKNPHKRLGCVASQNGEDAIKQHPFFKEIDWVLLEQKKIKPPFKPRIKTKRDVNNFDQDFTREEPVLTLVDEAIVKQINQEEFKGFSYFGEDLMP

[17] = Inhibition of human recombinant […] expressed in Sf21 cells using Bio-cdc peptide substrate and ATP after 60 mins by time-resolved fluorescence in-vitro kinase assay
[18] = target: T3, Protein kinase C zeta type (Homo sapiens, UniProt Q05513); experiment: Inhibition of human recombinant PKCzeta expressed in Sf21 cells using Bio-cdc peptide substrate and ATP after 60 mins by time-resolved fluorescence in-vitro kinase assay
T3 sequence (Q05513 whole entry): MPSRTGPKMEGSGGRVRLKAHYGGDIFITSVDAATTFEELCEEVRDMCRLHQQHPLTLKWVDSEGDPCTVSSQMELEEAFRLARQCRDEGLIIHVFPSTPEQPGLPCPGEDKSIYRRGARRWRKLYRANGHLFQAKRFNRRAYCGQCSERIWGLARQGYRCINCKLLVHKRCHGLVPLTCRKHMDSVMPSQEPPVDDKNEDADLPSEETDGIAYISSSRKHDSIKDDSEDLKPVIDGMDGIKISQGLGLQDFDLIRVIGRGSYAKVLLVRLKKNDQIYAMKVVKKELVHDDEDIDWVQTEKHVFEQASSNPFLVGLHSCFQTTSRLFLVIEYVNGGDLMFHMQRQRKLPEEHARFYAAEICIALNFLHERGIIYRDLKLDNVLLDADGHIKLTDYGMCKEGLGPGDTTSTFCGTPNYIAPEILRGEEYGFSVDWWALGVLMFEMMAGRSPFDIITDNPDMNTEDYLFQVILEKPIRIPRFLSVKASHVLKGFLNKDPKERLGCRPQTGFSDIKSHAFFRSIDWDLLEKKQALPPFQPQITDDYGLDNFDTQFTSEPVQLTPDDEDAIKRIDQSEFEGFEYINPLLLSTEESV

T1 sequence (Q04759 whole entry): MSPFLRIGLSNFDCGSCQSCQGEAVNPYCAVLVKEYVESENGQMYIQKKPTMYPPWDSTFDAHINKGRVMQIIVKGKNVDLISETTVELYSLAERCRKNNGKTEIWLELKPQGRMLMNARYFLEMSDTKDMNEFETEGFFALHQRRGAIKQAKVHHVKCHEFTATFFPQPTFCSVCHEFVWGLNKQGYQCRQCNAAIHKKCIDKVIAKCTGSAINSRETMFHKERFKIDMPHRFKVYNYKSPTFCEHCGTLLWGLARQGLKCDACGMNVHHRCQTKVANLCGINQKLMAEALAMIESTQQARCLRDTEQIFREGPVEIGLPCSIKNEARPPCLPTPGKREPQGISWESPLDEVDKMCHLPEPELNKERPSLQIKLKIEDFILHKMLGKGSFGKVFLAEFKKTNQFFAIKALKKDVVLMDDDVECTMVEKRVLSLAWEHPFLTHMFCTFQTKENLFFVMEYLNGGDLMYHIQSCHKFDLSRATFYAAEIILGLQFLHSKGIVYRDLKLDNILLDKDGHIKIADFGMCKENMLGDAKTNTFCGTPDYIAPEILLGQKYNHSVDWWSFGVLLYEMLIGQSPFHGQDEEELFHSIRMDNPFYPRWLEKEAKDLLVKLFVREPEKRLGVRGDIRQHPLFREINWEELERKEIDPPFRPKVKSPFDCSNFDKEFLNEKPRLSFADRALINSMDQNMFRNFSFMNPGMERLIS
Sequence of Focal adhesion kinase 1 (Q05397 whole entry): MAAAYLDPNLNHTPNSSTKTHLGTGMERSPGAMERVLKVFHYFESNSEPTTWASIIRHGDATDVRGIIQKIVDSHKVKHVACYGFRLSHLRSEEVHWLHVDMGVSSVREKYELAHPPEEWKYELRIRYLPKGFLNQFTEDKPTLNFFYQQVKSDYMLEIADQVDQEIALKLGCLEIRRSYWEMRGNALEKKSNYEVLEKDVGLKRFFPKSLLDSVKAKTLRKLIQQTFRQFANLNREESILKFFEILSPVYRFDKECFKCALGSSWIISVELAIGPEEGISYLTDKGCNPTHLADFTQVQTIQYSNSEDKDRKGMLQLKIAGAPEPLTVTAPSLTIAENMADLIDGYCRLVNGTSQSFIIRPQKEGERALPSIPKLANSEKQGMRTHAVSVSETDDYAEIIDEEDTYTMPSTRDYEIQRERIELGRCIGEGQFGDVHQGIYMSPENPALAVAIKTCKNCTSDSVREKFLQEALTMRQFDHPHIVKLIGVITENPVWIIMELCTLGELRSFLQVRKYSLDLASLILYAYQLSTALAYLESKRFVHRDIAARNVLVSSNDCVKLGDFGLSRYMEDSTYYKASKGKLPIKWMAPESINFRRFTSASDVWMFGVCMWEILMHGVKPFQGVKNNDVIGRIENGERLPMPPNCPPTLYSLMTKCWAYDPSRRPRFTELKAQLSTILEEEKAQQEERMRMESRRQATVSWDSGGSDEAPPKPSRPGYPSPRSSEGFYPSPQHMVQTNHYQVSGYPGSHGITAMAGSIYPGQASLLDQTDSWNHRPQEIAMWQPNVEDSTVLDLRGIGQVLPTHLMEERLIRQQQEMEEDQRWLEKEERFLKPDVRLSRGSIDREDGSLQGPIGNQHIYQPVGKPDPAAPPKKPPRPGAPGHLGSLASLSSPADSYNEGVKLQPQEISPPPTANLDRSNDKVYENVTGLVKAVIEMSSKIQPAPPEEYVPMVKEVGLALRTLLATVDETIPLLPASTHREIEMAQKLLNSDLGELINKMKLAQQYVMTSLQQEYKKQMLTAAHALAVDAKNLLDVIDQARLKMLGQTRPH

Structure (SMILES) | IC50 [2] [µM] | IC50 [3] [µM] | Papp A→B [4] [×10⁻⁶ cm/s] | CL free [5] [mL/min/kg] | IC50 (cells) [µM] | also measured
O=C1CN2C(=NN1)COc1ccccc12 | 453 | > 50 |  |  |  | IC50 [1]: 19 µM; IC50 (Focal adhesion kinase 1): 156 µM
O=C1CN2C(=NN1)COc1ccc(NC3CNC3)cc12 | 1.3 | 7.1 |  |  |  | 
O=C1CN2C(=NN1)COc1ccc(NC3COC3)cc12 | > 50 |  |  |  |  | 
O=C1CN2C(=NN1)COc1ccc(NC3CCCNC3)cc12 (stereo not drawn) | 14 |  |  |  |  | 
O=C1CN2C(=NN1)COc1ccc(NC3CCCNCC3)cc12 (stereo not drawn) | 8.9 |  |  |  |  | 
O=C1CN2C(=NN1)COc1ccc(NCC3CCNC3)cc12 (stereo not drawn) | 20 |  |  |  |  | 
CC(N)CNc1ccc2c(c1)N1CC(=O)NN=C1CO2 (stereo not drawn) | 18 |  |  |  |  | 
CN(C)CC(=O)Nc1ccc2c(c1)N1CC(=O)NN=C1CO2 | 46 |  |  |  |  | 
O=C1CN2C(=NN1)COc1ccc(NC(=O)C3CNC3)cc12 | 19 |  |  |  |  | 
O=C1CN2C(=NN1)COc1ccc(NC(=O)C3CCNC3)cc12 (stereo not drawn) | 46 |  |  |  |  | 
O=C1CN2C(=NN1)COc1ccc(NC(=O)CC3CCNCC3)cc12 | > 50 |  |  |  |  | 
CC1C(=O)NN=C2COc3ccc(NC4CNC4)cc3N21 (stereo not drawn) | 0.23 | 9.4 | 0.42 | 33 | 2.7 | CL free [6]: 48.3 mL/min/kg
O=C1NN=C2COc3ccc(NC4CNC4)cc3N2C1C1CC1 (stereo not drawn) | 3.5 | > 50 |  |  |  | 
Cc1cc2c(cc1NC1CNC1)N1C(=NNC(=O)C1C)CO2 (stereo not drawn) | 0.11 | 4.1 | 0.31 | < 33 | 0.43 | CL free [6]: 61.7 mL/min/kg
CC1C(=O)NN=C2COc3cc(F)c(NC4CNC4)cc3N21 (stereo not drawn) | 0.1 | 6.9 | 0.86 | < 26.7 | 0.31 | CL free [6]: 50 mL/min/kg
CC(C)c1cc2c(cc1NC1CNC1)N1C(=NNC(=O)C1C)CO2 (stereo not drawn) | 0.13 | 2.2 | 0.28 | < 33 | 0.34 | CL free [6]: 88.3 mL/min/kg
CC1C(=O)NN=C2COc3cc(C(F)(F)F)c(NC4CNC4)cc3N21 (stereo not drawn) |  | 2.2 | 0.85 | 56.7 | 0.23 | CL free [6]: < 67 mL/min/kg
CC1C(=O)NN=C2COc3cc(C(F)(F)F)c(OC4CNC4)cc3N21 (stereo not drawn) | 0.19 | 3 |  | 51.7 | 0.91 | CL free [6]: < 73.3 mL/min/kg
Cc1cc2c(cc1NC1CNC1)N1C(=NNC(=O)[C@H]1C)CO2 | 0.055 | 5.1 | 0.35 | 40 | 0.27 | IC50 [7]: 0.52 µM; IC50 [8]: 0.75 µM; IC50 [9]: 23 µM; clearance [10]: 81.7 mL/min/kg; half-life [11]: 3 h; Cmax [12]: 8.7 ng/mL; AUC [13]: 60 ng·h/mL; bioavailability [14]: 9.2%
Cc1cc2c(cc1NC1CNC1)N1C(=NNC(=O)[C@@H]1C)CO2 | 0.39 | 3 | 0.16 |  | 4.2 | CL free [15]: < 73.3 mL/min/kg
C[C@H]1C(=O)NN=C2COc3cc(C(F)(F)F)c(NC4CNC4)cc3N21 |  | 2.9 | 0.25 | 85 | 1 | CL free [6]: 118 mL/min/kg; CL free [15]: < 120 mL/min/kg

Further lines, with some results ahead:

IC50 [2] [µM] | IC50 [3] [µM] | Papp A→B [4] [×10⁻⁶ cm/s] | CL free [5] [mL/min/kg] | IC50 (cells) [µM] | Structure (SMILES) | also measured
1 | 5.4 |  |  |  | CCC1C(=O)NN=C2COc3ccc(NC4CNC4)cc3N21 (stereo not drawn) | 
16 |  |  |  |  | CN(C)Cc1ccc2c(c1)OCC1=NNC(=O)CN12 | 
38 |  |  |  |  | O=C1CN2C(=NN1)COc1ccc(NC3CCC3)cc12 | 
3.3 |  |  |  |  | O=C1CN2C(=NN1)COc1ccc(NC3CCNC3)cc12 (stereo not drawn) | 
21 |  |  |  |  | O=C1CN2C(=NN1)COc1ccc(NC3CCNCC3)cc12 | 
17 |  |  |  |  | O=C1CN2C(=NN1)COc1ccc(NCC3CNC3)cc12 | 
31 |  |  |  |  | O=C1CN2C(=NN1)COc1ccc(NCC3CCNCC3)cc12 | 
3.5 |  |  |  |  | O=C1CN2C(=NN1)COc1ccc(NC(=O)C3CCNCC3)cc12 | 
4.5 |  |  |  |  | CN1CCC(C(=O)Nc2ccc3c(c2)N2CC(=O)NN=C2CO3)CC1 | 
> 50 | > 50 |  |  |  | O=C1NN=C2COc3ccc(NC4CNC4)cc3N2C1c1ccccc1 (stereo not drawn) | 
0.059 | 1.6 | 0.5 | < 46.7 | 0.39 | CC1C(=O)NN=C2COc3cc(C(F)(F)F)c(CC4CNC4)cc3N21 (stereo not drawn) | CL free [6]: 81.7 mL/min/kg
0.049 | 1.8 | 0.27 | 90 | 0.12 | C[C@@H]1C(=O)NN=C2COc3cc(-c4ccccc4)c(NC4CNC4)cc3N21 | CL free [6]: 200 mL/min/kg; CL free [15]: 467 mL/min/kg; IC50 [7]: 0.087 µM; IC50 [8]: 0.33 µM; IC50 [16]: 0.46 µM; IC50 [9]: 13 µM; IC50 [17]: 0.86 µM; IC50 [18]: 8.5 µM; clearance [10]: 81.7 mL/min/kg; half-life [11]: 5.9 h; Cmax [12]: 5.3 ng/mL; AUC [13]: 43 ng·h/mL; bioavailability [14]: 5.4%
0.76 | 6.6 | 0.23 | 110 | 2.4 | C[C@H]1C(=O)NN=C2COc3cc(-c4ccccc4)c(NC4CNC4)cc3N21 | CL free [6]: < 103 mL/min/kg; CL free [15]: 417 mL/min/kg
